Measurements taken from paper PMC12155096 (International Journal of Molecular Sciences, 2025).
Counter-ions that a name gives are not always drawn.

target: T1, human CYP2C9 (Homo sapiens, UniProt P11712); test: biochemical; details: not given
T1 sequence (P11712 whole entry): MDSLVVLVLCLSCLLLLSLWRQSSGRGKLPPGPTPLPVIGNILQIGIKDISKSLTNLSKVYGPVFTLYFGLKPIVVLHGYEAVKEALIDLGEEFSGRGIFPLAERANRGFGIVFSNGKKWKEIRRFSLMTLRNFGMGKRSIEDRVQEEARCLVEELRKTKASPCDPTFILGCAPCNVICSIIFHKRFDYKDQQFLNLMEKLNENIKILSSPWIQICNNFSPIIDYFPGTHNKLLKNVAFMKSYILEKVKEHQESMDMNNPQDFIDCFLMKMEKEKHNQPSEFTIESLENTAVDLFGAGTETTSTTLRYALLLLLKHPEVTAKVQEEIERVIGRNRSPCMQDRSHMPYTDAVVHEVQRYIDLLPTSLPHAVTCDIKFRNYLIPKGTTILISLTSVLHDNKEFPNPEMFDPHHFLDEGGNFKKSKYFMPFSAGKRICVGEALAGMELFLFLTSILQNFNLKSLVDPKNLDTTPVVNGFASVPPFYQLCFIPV

Compound | IC50 [µM] | AC50 [µM]
CC1=C(C(=O)OC(C)C)C(c2cccc([N+](=O)[O-])c2)C(C(=O)OC2CN(C(c3ccccc3)c3ccccc3)C2)=C(N)N1 (stereo not shown) [Azelnidipine] | 1.56 ± 0.18 | 
O=C1CC2(CCCC2)CC(=O)N1CCNCC1COc2ccccc2O1 (stereo not shown) [Binospirone mesylate] | 23.5 ± 5.69 | 
Cc1cc2c(OCC(CNC(C)(C)C)OC(=O)c3ccccc3)cccc2[nH]1 (stereo not shown) [Bopindolol] | 6.95 ± 0.8 | 
O=C(OCC(O)CO)c1ccccc1Nc1ccnc2c(C(F)(F)F)cccc12 (stereo not shown) [Floctafenine] | 10.2 ± 0.69 | 
COC(=O)C1=C(C)NC(C)=C(C(=O)OC(C)(C)CN(C)CCC(c2ccccc2)c2ccccc2)C1c1cccc([N+](=O)[O-])c1 (stereo not shown) [Lercanidipine hydrochloride] | 2.89 ± 0.52 | 
Cn1cc(C(=O)[C@@H]2CCc3nc[nH]c3C2)c2ccccc21 [Ramosetron hydrochloride] |  | 10.7 ± 4.21
C=C(C)[C@H]1Cc2c(ccc3c2O[C@@H]2COc4cc(OC)c(OC)cc4[C@@H]2C3=O)O1 [Rotenone] | 9.2 | 
CN1CCN(CCCN2c3ccccc3Sc3ccc(S(=O)(=O)N(C)C)cc32)CC1 [Thioproperazine dimethanesulfonate] | 17.4 | 

same assay, conditions: CYP2C9 AC50 (half-maximal activity concentration)

Compound | AC50 [µM]
CC(COc1ccccc1)NC(C)C(O)c1ccc(O)cc1 (stereo not shown) [Isoxsuprine hydrochloride] | 14.9
Clc1ccc(C(c2ccccc2Cl)C(Cl)Cl)cc1 (stereo not shown) [Mitotane] | 10.6
Nc1ccc(S(=O)(=O)Nc2nccs2)cc1 [Sulfathiazole] | 13.3
Clc1ccc(C(c2ccccc2Cl)C(Cl)Cl)cc1 (stereo not shown) [o,p'-DDD] | 16.8

same assay, conditions: CYP2C9 IC50 (half-maximal inhibitory concentration)

Compound | IC50 [µM]
Cc1[nH]cnc1CN1CCc2c(c3ccccc3n2C)C1=O [Alosetron hydrochloride] | 1.66
CCOC(=O)[C@H](CCc1ccccc1)N[C@H]1CCc2ccccc2N(CC(=O)O)C1=O [Benazepril] | 7.32
CC(Cc1cccc(C(F)(F)F)c1)NCCOC(=O)c1ccccc1 (stereo not shown) [Benfluorex hydrochloride] | 25.3
CCCCC(=O)O[C@]1(C(=O)CO)[C@@H](C)C[C@H]2[C@@H]3CCC4=CC(=O)C=C[C@]4(C)[C@@]3(F)[C@@H](O)C[C@@]21C [Betamethasone valerate] | 17.4
COc1ccc2c(c1OC)CN1CCc3cc4c(cc3[C@@H]1C2)OCO4 [Canadine] | 26.4
CC(COc1ccccc1)NC(C)C(O)c1ccc(O)cc1 (stereo not shown) [Isoxsuprine hydrochloride] | 14.9
Clc1ccc(C(c2ccccc2Cl)C(Cl)Cl)cc1 (stereo not shown) [Mitotane] | 10.6

target: T1, human CYP2C9; test: not given; details: human

Compound | CYP2C9 Efficacy (in parenthesis)
Clc1ccc(C(c2ccccc2Cl)C(Cl)Cl)cc1 (stereo not shown) [Mitotane] | 10.57 ± 0.69 (-106 ± 4) %

target: T2, human CYP1A2 (Homo sapiens, UniProt P05177); test: biochemical; details: not given
T2 sequence (P05177 1-516): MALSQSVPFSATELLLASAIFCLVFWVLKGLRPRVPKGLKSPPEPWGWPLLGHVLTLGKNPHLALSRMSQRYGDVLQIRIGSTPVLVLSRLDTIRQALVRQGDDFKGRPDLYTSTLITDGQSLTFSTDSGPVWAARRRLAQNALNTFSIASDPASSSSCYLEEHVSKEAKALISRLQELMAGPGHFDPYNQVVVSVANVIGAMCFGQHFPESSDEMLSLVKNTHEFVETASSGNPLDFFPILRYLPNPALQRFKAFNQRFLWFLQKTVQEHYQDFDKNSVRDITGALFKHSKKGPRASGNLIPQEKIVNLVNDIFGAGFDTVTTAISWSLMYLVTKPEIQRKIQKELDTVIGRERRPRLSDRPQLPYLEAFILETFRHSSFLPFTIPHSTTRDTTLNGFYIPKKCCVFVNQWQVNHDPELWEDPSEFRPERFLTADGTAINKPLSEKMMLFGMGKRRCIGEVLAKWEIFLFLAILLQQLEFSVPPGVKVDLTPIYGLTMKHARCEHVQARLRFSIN

Compound | IC50 [µM] | AC50 [µM]
O=C(OCC(O)CO)c1ccccc1Nc1ccnc2c(C(F)(F)F)cccc12 (stereo not shown) [Floctafenine] | 2.91 ± 0.17 | 
COC(=O)C1=C(C)NC(C)=C(C(=O)OC(C)(C)CN(C)CCC(c2ccccc2)c2ccccc2)C1c1cccc([N+](=O)[O-])c1 (stereo not shown) [Lercanidipine hydrochloride] | 32.8 ± 2.67 | 
Cn1cc(C(=O)[C@@H]2CCc3nc[nH]c3C2)c2ccccc21 [Ramosetron hydrochloride] |  | 17.4
CN1CCN(CCCN2c3ccccc3Sc3ccc(S(=O)(=O)N(C)C)cc32)CC1 [Thioproperazine dimethanesulfonate] | 24.1 ± 9.56 | 

same assay, conditions: CYP1A2 AC50 (half-maximal activity concentration)

Compound | AC50 [µM]
CC(COc1ccccc1)NC(C)C(O)c1ccc(O)cc1 (stereo not shown) [Isoxsuprine hydrochloride] | 16.1
Nc1ccc(S(=O)(=O)Nc2nccs2)cc1 [Sulfathiazole] | 33.2

same assay, conditions: CYP1A2 IC50 (half-maximal inhibitory concentration)

Compound | IC50 [µM]
Cc1[nH]cnc1CN1CCc2c(c3ccccc3n2C)C1=O [Alosetron hydrochloride] | 0.89
CCOC(=O)[C@H](CCc1ccccc1)N[C@H]1CCc2ccccc2N(CC(=O)O)C1=O [Benazepril] | 14
CC(Cc1cccc(C(F)(F)F)c1)NCCOC(=O)c1ccccc1 (stereo not shown) [Benfluorex hydrochloride] | 2.6
COc1ccc2c(c1OC)CN1CCc3cc4c(cc3[C@@H]1C2)OCO4 [Canadine] | 9.1
CC(COc1ccccc1)NC(C)C(O)c1ccc(O)cc1 (stereo not shown) [Isoxsuprine hydrochloride] | 16.1

target: T3, human CYP2C19 (Homo sapiens, UniProt P33261); test: not given; details: human
T3 sequence (P33261 whole entry): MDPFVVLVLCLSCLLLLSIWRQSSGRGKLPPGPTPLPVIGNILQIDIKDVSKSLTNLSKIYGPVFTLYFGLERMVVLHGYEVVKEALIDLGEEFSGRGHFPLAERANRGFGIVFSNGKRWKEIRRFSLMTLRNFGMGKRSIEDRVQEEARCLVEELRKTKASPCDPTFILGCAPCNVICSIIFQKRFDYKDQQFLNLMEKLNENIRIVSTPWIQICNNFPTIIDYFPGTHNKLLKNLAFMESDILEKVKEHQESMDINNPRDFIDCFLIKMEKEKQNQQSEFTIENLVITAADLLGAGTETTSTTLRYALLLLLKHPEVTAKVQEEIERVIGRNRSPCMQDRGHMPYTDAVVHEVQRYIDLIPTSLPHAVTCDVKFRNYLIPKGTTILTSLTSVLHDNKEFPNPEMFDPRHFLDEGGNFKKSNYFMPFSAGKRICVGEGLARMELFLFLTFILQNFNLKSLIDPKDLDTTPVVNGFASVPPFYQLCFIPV

Compound | CYP2C19 Efficacy (in parenthesis)
Clc1ccc(C(c2ccccc2Cl)C(Cl)Cl)cc1 (stereo not shown) [Mitotane] | 0.82 ± 0.15 (-131 ± 13) %

target: T4, human CYP2D6 (Homo sapiens, UniProt P10635); test: not given; details: human
T4 sequence (P10635 whole entry): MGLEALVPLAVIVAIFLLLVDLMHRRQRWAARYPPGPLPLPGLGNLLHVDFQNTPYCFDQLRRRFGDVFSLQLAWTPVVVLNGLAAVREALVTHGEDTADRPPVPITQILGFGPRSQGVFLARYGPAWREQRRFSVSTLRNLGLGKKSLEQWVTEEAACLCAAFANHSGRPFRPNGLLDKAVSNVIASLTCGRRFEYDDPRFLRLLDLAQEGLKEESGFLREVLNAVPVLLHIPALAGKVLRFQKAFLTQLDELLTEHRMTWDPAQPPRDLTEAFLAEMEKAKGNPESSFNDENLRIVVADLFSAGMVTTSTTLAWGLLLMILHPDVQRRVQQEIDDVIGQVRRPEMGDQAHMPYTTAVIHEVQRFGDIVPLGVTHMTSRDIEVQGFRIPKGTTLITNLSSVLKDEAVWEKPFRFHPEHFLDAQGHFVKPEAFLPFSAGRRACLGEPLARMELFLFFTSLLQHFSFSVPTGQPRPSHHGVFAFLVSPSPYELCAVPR

Compound | CYP2D6 Efficacy (in parenthesis)
Clc1ccc(C(c2ccccc2Cl)C(Cl)Cl)cc1 (stereo not shown) [Mitotane] | 32.45 ± 5.84 (-38 ± 9) %

target: T3, human CYP2C19; test: biochemical; details: not given

Compound | IC50 [µM]
CC1=C(C(=O)OC(C)C)C(c2cccc([N+](=O)[O-])c2)C(C(=O)OC2CN(C(c3ccccc3)c3ccccc3)C2)=C(N)N1 (stereo not shown) [Azelnidipine] | 2.43 ± 0.68
O=C1CC2(CCCC2)CC(=O)N1CCNCC1COc2ccccc2O1 (stereo not shown) [Binospirone mesylate] | 8.77 ± 1.42
Cc1cc2c(OCC(CNC(C)(C)C)OC(=O)c3ccccc3)cccc2[nH]1 (stereo not shown) [Bopindolol] | 23.9 ± 13
O=C(OCC(O)CO)c1ccccc1Nc1ccnc2c(C(F)(F)F)cccc12 (stereo not shown) [Floctafenine] | 0.35

same assay, conditions: CYP2C19 AC50 (half-maximal activity concentration)

Compound | AC50 [µM]
CC(COc1ccccc1)NC(C)C(O)c1ccc(O)cc1 (stereo not shown) [Isoxsuprine hydrochloride] | 7.99
Clc1ccc(C(c2ccccc2Cl)C(Cl)Cl)cc1 (stereo not shown) [Mitotane] | 0.82
Clc1ccc(C(c2ccccc2Cl)C(Cl)Cl)cc1 (stereo not shown) [o,p'-DDD] | 1.05

same assay, conditions: CYP2C19 IC50 (half-maximal inhibitory concentration)

Compound | IC50 [µM]
Cc1[nH]cnc1CN1CCc2c(c3ccccc3n2C)C1=O [Alosetron hydrochloride] | 27.8
CCOC(=O)[C@H](CCc1ccccc1)N[C@H]1CCc2ccccc2N(CC(=O)O)C1=O [Benazepril] | 6.84
CC(Cc1cccc(C(F)(F)F)c1)NCCOC(=O)c1ccccc1 (stereo not shown) [Benfluorex hydrochloride] | 6.95
CCCCC(=O)O[C@]1(C(=O)CO)[C@@H](C)C[C@H]2[C@@H]3CCC4=CC(=O)C=C[C@]4(C)[C@@]3(F)[C@@H](O)C[C@@]21C [Betamethasone valerate] | 31.1
COc1ccc2c(c1OC)CN1CCc3cc4c(cc3[C@@H]1C2)OCO4 [Canadine] | 1.25
CC(COc1ccccc1)NC(C)C(O)c1ccc(O)cc1 (stereo not shown) [Isoxsuprine hydrochloride] | 7.99
Clc1ccc(C(c2ccccc2Cl)C(Cl)Cl)cc1 (stereo not shown) [Mitotane] | 0.82
C=C(C)[C@H]1Cc2c(ccc3c2O[C@@H]2COc4cc(OC)c(OC)cc4[C@@H]2C3=O)O1 [Rotenone] | 1.04

target: T4, human CYP2D6; test: biochemical; details: not given

Compound | IC50 [µM] | AC50 [µM]
CC1=C(C(=O)OC(C)C)C(c2cccc([N+](=O)[O-])c2)C(C(=O)OC2CN(C(c3ccccc3)c3ccccc3)C2)=C(N)N1 (stereo not shown) [Azelnidipine] | 13.2 ± 3.2 | 
O=C1CC2(CCCC2)CC(=O)N1CCNCC1COc2ccccc2O1 (stereo not shown) [Binospirone mesylate] | 0.29 ± 0.02 | 
Cc1cc2c(OCC(CNC(C)(C)C)OC(=O)c3ccccc3)cccc2[nH]1 (stereo not shown) [Bopindolol] | 0.64 ± 0.04 | 
O=C(OCC(O)CO)c1ccccc1Nc1ccnc2c(C(F)(F)F)cccc12 (stereo not shown) [Floctafenine] | 23.6 ± 7.75 | 
COC(=O)C1=C(C)NC(C)=C(C(=O)OC(C)(C)CN(C)CCC(c2ccccc2)c2ccccc2)C1c1cccc([N+](=O)[O-])c1 (stereo not shown) [Lercanidipine hydrochloride] | 4.44 ± 1.02 | 
Cn1cc(C(=O)[C@@H]2CCc3nc[nH]c3C2)c2ccccc21 [Ramosetron hydrochloride] |  | 17.4
C=C(C)[C@H]1Cc2c(ccc3c2O[C@@H]2COc4cc(OC)c(OC)cc4[C@@H]2C3=O)O1 [Rotenone] | 37.7 | 
CN1CCN(CCCN2c3ccccc3Sc3ccc(S(=O)(=O)N(C)C)cc32)CC1 [Thioproperazine dimethanesulfonate] | 15.5 | 

same assay, conditions: CYP2D6 AC50 (half-maximal activity concentration)

Compound | AC50 [µM]
CC(COc1ccccc1)NC(C)C(O)c1ccc(O)cc1 (stereo not shown) [Isoxsuprine hydrochloride] | 0.55
Clc1ccc(C(c2ccccc2Cl)C(Cl)Cl)cc1 (stereo not shown) [Mitotane] | 32.4
Nc1ccc(S(=O)(=O)Nc2nccs2)cc1 [Sulfathiazole] | 56.1
Clc1ccc(C(c2ccccc2Cl)C(Cl)Cl)cc1 (stereo not shown) [o,p'-DDD] | 31.2

same assay, conditions: CYP2D6 IC50 (half-maximal inhibitory concentration)

Compound | IC50 [µM]
Cc1[nH]cnc1CN1CCc2c(c3ccccc3n2C)C1=O [Alosetron hydrochloride] | 10.8
CCOC(=O)[C@H](CCc1ccccc1)N[C@H]1CCc2ccccc2N(CC(=O)O)C1=O [Benazepril] | 29.2
CC(Cc1cccc(C(F)(F)F)c1)NCCOC(=O)c1ccccc1 (stereo not shown) [Benfluorex hydrochloride] | 0.08
CCCCC(=O)O[C@]1(C(=O)CO)[C@@H](C)C[C@H]2[C@@H]3CCC4=CC(=O)C=C[C@]4(C)[C@@]3(F)[C@@H](O)C[C@@]21C [Betamethasone valerate] | 39.1
COc1ccc2c(c1OC)CN1CCc3cc4c(cc3[C@@H]1C2)OCO4 [Canadine] | 0.26
CC(COc1ccccc1)NC(C)C(O)c1ccc(O)cc1 (stereo not shown) [Isoxsuprine hydrochloride] | 0.55
Clc1ccc(C(c2ccccc2Cl)C(Cl)Cl)cc1 (stereo not shown) [Mitotane] | 32.4
